Measured values as given in ChEMBL document CHEMBL1201862, “PubChem BioAssay data set” (2004).
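Each compound was tested at five concentrations against cells in 96-well plates for 48 hours. GI50 marks 50% less growth.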 Calls of active or inactive are those of the source. Cut-off read from the data, not from the text of the source: active = GI50 up to about 1.1 µM and inactive = higher.

Columns and labels:
Experiment in all cases: inhibition of tumour cell growth, NCI panel, 48 h
[1] = system: CAKI-1
[2] = system: EKVX
[3] = system: NCI/ADR-RES
[4] = system: BT-549
[5] = system: T47D
[6] = system: SK-MEL-2
[7] = system: NCI-H226
[8] = system: MDA-MB-435
[9] = system: SK-MEL-5
[10] = system: LXFL 529
[11] = system: HCC 2998
[12] = system: RXF 393
[13] = system: NCI-H522
[14] = system: HOP-92
[15] = system: NCI-H460
[16] = system: ACHN
[17] = system: HCT-116
[18] = system: OVCAR-5
[19] = system: CCRF-CEM
[20] = system: UACC-257

Measured: GI50

COc1cc2nncc(SCc3ccc(Cl)c(Cl)c3)c2cc1OC
inactive: [1] > 73.8 µM | [2] > 100 µM | [3] > 100 µM | [4] > 100 µM | [5] 34 µM | [6] > 100 µM | [7] > 100 µM | [8] > 100 µM | [9] > 100 µM | [10] 17.7 µM | [11] > 100 µM | [12] 35.3 µM | [13] 23.2 µM | [14] > 45.8 µM | [15] > 72.3 µM | [16] > 48.4 µM | [17] > 100 µM | [18] 98.4 µM | [19] > 100 µM | [20] > 56.4 µM

CCOC(=O)NC1CC2CCC1(OC)C=C2C (centres undefined)
inactive: [1] > 53.5 µM | [2] > 100 µM | [6] > 100 µM | [7] > 100 µM | [9] > 100 µM | [10] > 100 µM | [11] > 100 µM | [12] > 100 µM | [13] > 100 µM | [14] > 100 µM | [15] > 100 µM | [16] > 100 µM | [17] > 100 µM | [18] > 100 µM | [19] > 100 µM | [20] > 100 µM

Clc1cc(Cl)c2c(Cl)cc(Cl)c3c2c1N=S=N3
inactive: [1] > 100 µM | [2] > 100 µM | [6] > 100 µM | [7] > 100 µM | [9] > 100 µM | [10] > 100 µM | [11] > 100 µM | [12] > 100 µM | [13] > 100 µM | [14] > 100 µM | [17] > 100 µM | [18] > 100 µM | [19] 52.1 µM | [20] > 100 µM

Cc1cc(C)c2c(c1)N[S@@](=O)S2
inactive: [1] 25.2 µM | [2] 51.5 µM | [6] 22.3 µM | [7] 19.2 µM | [9] 29.9 µM | [10] 13.2 µM | [11] 39.6 µM | [12] 10.6 µM | [13] 17.4 µM | [14] 45.8 µM | [15] 21.8 µM | [16] 23.4 µM | [17] 17.1 µM | [18] 30.6 µM | [19] 21.9 µM | [20] 16.6 µM

CCNC(C)Cc1ccccc1 (centres undefined)
inactive: [1] > 100 µM | [2] > 100 µM | [6] > 100 µM | [7] > 100 µM | [9] > 100 µM | [10] > 100 µM | [11] > 100 µM | [12] > 100 µM | [13] > 100 µM | [14] > 100 µM | [15] > 100 µM | [16] > 100 µM | [17] > 100 µM | [18] > 100 µM | [19] > 100 µM | [20] > 100 µM

O=C1NC(=O)C2C(=O)NC(=O)C1C2(c1ccccc1)c1ccc(Cl)cc1 (centres undefined)
inactive: [1] > 100 µM | [2] > 100 µM | [6] > 100 µM | [7] > 100 µM | [9] > 100 µM | [10] > 100 µM | [11] > 100 µM | [12] > 100 µM | [13] > 100 µM | [14] > 100 µM | [15] > 100 µM | [16] > 100 µM | [18] > 100 µM | [19] > 100 µM | [20] > 100 µM

CN(/N=C/c1cccc2cccnc12)c1ccccc1
inactive: [1] 7.85 µM | [2] > 100 µM | [6] 41.1 µM | [7] > 100 µM | [9] > 100 µM | [10] 89.3 µM | [11] 86.1 µM | [12] 41.9 µM | [13] > 100 µM | [14] 51.9 µM | [15] 79.6 µM | [16] 99.5 µM | [18] > 100 µM | [19] > 100 µM | [20] 52 µM

CC(=O)OCC1OC(n2cc([N+](=O)[O-])c(=O)[nH]c2=O)C(OC(C)=O)C(OC(C)=O)C1OC(C)=O (centres undefined)
inactive: [1] > 100 µM | [2] > 100 µM | [6] > 100 µM | [7] 42.2 µM | [9] > 100 µM | [10] > 100 µM | [11] > 100 µM | [12] 76 µM | [13] > 100 µM | [14] > 100 µM | [15] > 100 µM | [16] > 100 µM | [17] > 100 µM | [18] > 100 µM | [19] > 100 µM | [20] > 100 µM

O=C1C(c2ccc([N+](=O)[O-])cc2)=C(Cl)C(=O)c2c(O)cccc21
inactive: [1] 23.7 µM | [2] 20.5 µM | [3] 28.4 µM | [4] 17.1 µM | [5] 20.9 µM | [6] 17.9 µM | [7] > 43.2 µM | [8] 17.7 µM | [9] 23.4 µM | [10] 9.51 µM | [11] 52.6 µM | [12] 14.7 µM | [13] 7.87 µM | [14] 19 µM | [15] 52.8 µM | [16] 18.5 µM | [17] 27.9 µM | [18] 40.7 µM | [19] 4.56 µM | [20] 18.4 µM

CC(=O)N/C=C/c1cc(O)ccc1O
inactive: [1] 16.6 µM | [2] 45.2 µM | [6] 34.9 µM | [7] 46.3 µM | [9] 36.5 µM | [10] 12.7 µM | [11] 50.8 µM | [12] 31.7 µM | [13] 3.67 µM | [14] 18.7 µM | [15] > 60.7 µM | [16] 18.9 µM | [17] 32.5 µM | [18] 29.4 µM | [19] 25.3 µM | [20] 31 µM
